# From patent publication US20220283500A1, “CHEMICALLY AMPLIFIED POSITIVE-TYPE PHOTOSENSITIVE RESIN COMPOSITION, PHOTOSENSITIVE DRY FILM, PRODUCTION METHOD FOR PHOTOSENSITIVE DRY FILM, PRODUCTION METHOD FOR PATTERNED RESIST FILM, COMPOUND, PHOTO-ACID GENERATOR, AND PRODUCTION METHOD FOR N-ORGANOSULFONYLOXY COMPOUND” (TOKYO OHKA KOGYO CO., LTD., priority 2019, published 2022)
# Test: Evaluation of solubility of acid generator in PGMEA
# Settings: maximal concentration dissolved in propylene glycol monomethyl ether acetate (PGMEA)
row,Solvent solubility of acid generator [% by mass],Structure (SMILES)
1,> 20,CCCCc1ccc2c3c(cccc13)C(=O)N(OS(=O)(=O)C(F)(F)C(=O)OC)C2=O [PAG-1]
2,< 1,"O=C1c2cccc3cccc(c23)C(=O)N1OS(=O)(=O)C(F)(F)F [PAG-5, reference compound]"
3,> 20,"CCCCc1ccc2c3c(cccc13)C(=O)N(OS(=O)(=O)C(F)(F)F)C2=O [PAG-6, reference compound]"
4,5,COC(=O)C(F)(F)S(=O)(=O)ON1C(=O)c2cccc3cccc(c23)C1=O [PAG-7]
5,> 20,CCCCC(CC)COC(=O)CSc1ccc2c3c(cccc13)C(=O)N(OS(=O)(=O)C(F)(F)C(=O)OC)C2=O (stereo not drawn) [PAG-9]
6,> 20,CCCCC(CC)COC(=O)CSc1ccc2c3c(cccc13)C(=O)N(OS(=O)(=O)C(F)(F)C(=O)OCCC1CCCCC1)C2=O (stereo not drawn) [PAG-10]
7,10,CCCCC(Oc1cc2c3c(cccc3c1)C(=O)N(OS(=O)(=O)C(F)(F)C(=O)OC)C2=O)C(=O)O (stereo not drawn) [PAG-13]
8,10,CCCCC(Oc1cc2c3c(cccc3c1)C(=O)N(OS(=O)(=O)C(F)(F)C(=O)OCCC1CCCCC1)C2=O)C(=O)O (stereo not drawn) [PAG-14]
9,15,CCCCC(Oc1cc2c3c(cccc3c1)C(=O)N(OS(=O)(=O)C(F)(F)C(=O)OC)C2=O)C(=O)OC(C)(C)C (stereo not drawn) [PAG-17]
10,15,CCCCC(Oc1cc2c3c(cccc3c1)C(=O)N(OS(=O)(=O)C(F)(F)C(=O)OCCC1CCCCC1)C2=O)C(=O)OC(C)(C)C (stereo not drawn) [PAG-18]
11,10,COC(=O)C(F)(F)S(=O)(=O)ON1C(=O)c2cc(C(C)C)cc3ccc(C(C)C)c(c23)C1=O [PAG-29]
12,> 20,CC(C)c1cc2c3c(c(C(C)C)ccc3c1)C(=O)N(OS(=O)(=O)C(F)(F)C(=O)OCCC1CCCCC1)C2=O [PAG-30]
13,> 20,CC(C)c1cc2c3c(c(C(C)C)ccc3c1)C(=O)N(OS(=O)(=O)C(F)(F)C(=O)OCCC13CC4CC(CC(C4)C1)C3)C2=O [PAG-31]
14,10,CC(C)c1cc2c3c(c(C(C)C)ccc3c1)C(=O)N(OS(=O)(=O)C(F)(F)C(=O)OC1C3CC4OS(=O)(=O)C1C4C3)C2=O (stereo not drawn) [PAG-32]

row,Structure (SMILES),Solvent solubility of acid generator [% by mass]
1,CCCCc1ccc2c3c(cccc13)C(=O)N(OS(=O)(=O)C(F)(F)C(=O)OCCC1CCCCC1)C2=O [PAG-2],> 20
2,O=C1c2cccc3cccc(c23)C(=O)N1OS(=O)(=O)C(F)(F)C(=O)OC1C2CC3OS(=O)(=O)C1C3C2 (stereo not drawn) [PAG-8],< 1
3,CCCCC(CC)COC(=O)CSc1ccc2c3c(cccc13)C(=O)N(OS(=O)(=O)C(F)(F)C(=O)OCCC13CC4CC(CC(C4)C1)C3)C2=O (stereo not drawn) [PAG-11],> 20
4,CCCCC(CC)COC(=O)CSc1ccc2c3c(cccc13)C(=O)N(OS(=O)(=O)C(F)(F)C(=O)OC1C3CC4OS(=O)(=O)C1C4C3)C2=O (stereo not drawn) [PAG-12],> 20
5,CCCCC(Oc1cc2c3c(cccc3c1)C(=O)N(OS(=O)(=O)C(F)(F)C(=O)OCCC13CC4CC(CC(C4)C1)C3)C2=O)C(=O)O (stereo not drawn) [PAG-15],10
6,CCCCC(Oc1cc2c3c(cccc3c1)C(=O)N(OS(=O)(=O)C(F)(F)C(=O)OC1C3CC4OS(=O)(=O)C1C4C3)C2=O)C(=O)O (stereo not drawn) [PAG-16],10
7,CCCCC(Oc1cc2c3c(cccc3c1)C(=O)N(OS(=O)(=O)C(F)(F)C(=O)OCCC13CC4CC(CC(C4)C1)C3)C2=O)C(=O)OC(C)(C)C (stereo not drawn) [PAG-19],15
